{"source": "patent US20180177849A1", "about": "“Therapeutic Uses of Elsiglutide” (HELSINN HEALTHCARE SA, priority 2015, published 2018)", "key": {"spleen of Fischer rats": {"system": "spleen of Fischer rats", "experiment": "Histopathological evaluation of spleen", "format": "in vivo, rat", "conditions": "Group 8, irinotecan 200 mg/kg i.v.; 5 dead animals", "description": "(§1) The spleen and bone marrow of sternum of untreated Fischer rats and rats treated with irinotecan with 100, 150 and 200 mg/kg/d×3 alone and in combination with Elsiglutide (1.8 mg/kg/d×4) were examined histologically.\n(§2) Histologic analysis using sternum bone marrow and spleen were carried out on day 9 (6 days after the administration of the last irinotecan dose on day 3). Bone marrow and spleen specimens were fixed in buffered formalin (10%) for 48 hours. The entire sternum and spleen were removed during autopsy at the end of the experiments on day 9. The samples were put in 10% buffered formalin for 48 hours in order to get appropriate fixation. After that the sternum was decalcified in a Rapid Decalcifier (RDO) from Apex Engineering Products Corporation (Aurora, Ill., USA) for 17 minutes when the sternum could be bent easily with fingers. When decalcification was complete, samples were taken out of solution and put under cold running water for 60 minutes to remove the decalcification solution containing hydrochloric acid as an active ingredient. Then the decalcified bone marrow and spleen specimen were processed, embedded in paraffin, cut (5 u) and stained conventionally with hematoxylin and eosin (HE). The HE stained slides were used for general orientation and evaluation under light microscope using various magnifications. […]"}, "Fischer rats [1]": {"system": "Fischer rats", "experiment": "Complete blood cell count (CBC) analysis of peripheral blood", "format": "in vivo, rat", "description": "8 to 12-week-old female Fischer 344/N rats (body weight 160-200 g) were obtained from Harlan Sprague Dawley Inc. (Indianapolis, Ind.).\nIrinotecan was purchased as a ready-to-use formulation solution at a concentration of 20 mg/ml (100 mg in a 5 ml vial). For a rat of 150-200 g, an administration up to 2 ml solution (dose of 200 mg/kg/d×3) was required.\n(§3) Elsiglutide was administered by subcutaneous (S.C) route at 1.8 mg/kg/day once a day for 4 days. Three doses were administered 30 minutes prior to each daily intravenous (I.V) dose of irinotecan. Only the fourth dose of elsiglutide was administered 24 hours after the last dose of irinotecan. Irinotecan was administered by intravenous (I.V) injection at the maximum tolerated and therapeutic dose, 100, 150, 200 mg/kg/day for 3 days.\nHematological (CBC) Analysis • Complete blood cell count (CBC) analysis (days 0, 4, and 9) • From peripheral blood 14 markers, WBC (differential: neutrophils, lymphocytes, eosinophils, monocytes, basophils) and RDW-SD, RBC, HGB, HCT, MCV, MCH, MCHC, and Platelets were analyzed.\nThe statistical analysis of complete blood cells (CBC) results was carried out. The differences between the mean values in the different treatment groups were analyzed for significance.\n(§4) Treatment groups and time when specific acquisition of tissues was obtained are outlined below. Fischer Rats (Female), weighing 150 to 180 g (8-12 weeks) were utilized. • Control, histology, d 9 and CBC, baseline, day 4 and day 9 • Control vehicle, histology, d 9 and CBC baseline, d 4 and d 9 • Irinotecan 100 mg/kg/d×3, I.V., histology, d 9 and CBC, baseline, d 4 and d 9 • Irinotecan 150 mg/kg/d×3, I.V., histology, d 9 and CBC, baseline, d 4 and d 9, and CBC, baseline, d 4 and d 9 • Irinotecan 200 mg/kg/d×3, I.V., histology 9, and CBC, d 4 and d 9 • Elsiglutide 1.8 mg/kg/d×4, S.C., histology, d 9 and CBC, baseline, d 4 and d 9 • CBC, baseline, d 4 and d 9 • Elsiglutide 1.8 mg/d×4, S.C+Irinotecan 150 mg/kg/d×3, I.V, histology, d 9, and CBD baseline, d 4 and d9 • Elsiglutide 1.8 mg/d×4, S.C.+Irinotecan 200 mg/kg/d×3, I.V, histology, d 9, and CBC d 4 and d 9 Each treatment groups consisted of 10 rats for histology of bone marrow, spleen and peripheral blood analysis, and for survivors. Evaluation of peripheral blood was carried out on day zero (0), four (4) and day nine (9), bone marrow and spleen analysis after (necropsy) was carried out on day nine (9)."}, "[2]": {"experiment": "Protection against 5-FU- and irinotecan-induced toxicities", "design": "species or system mice and rats", "conditions": "in vivo; daily ×3 or weekly ×4", "description": "(§5) Studies were carried out in normal rats, rats bearing colon tumors and xenografts bearing human colon carcinoma, HCT8 and HT-29. Studies were carried out to test the hypothesis that elsiglutide offers selective protection against 5-Fluorouvacil-(5-FU) and irinotecan-induced toxicities and potentially enhances their antitumor activity. Elsiglutide was administered subcutaneously at non-toxic but therapeutically-effective dose of 1.8 mg/kg/day daily for 4 days, 30 min prior to each 5-FU/irinotecan dose. The tested doses of 5-FU were 100 mg/kg (MTD) and 200 mg/kg, and the doses of irinotecan were 100 mg/kg (MTD) and 200 mg/kg, either daily ×3 or weekly ×4."}, "[3]": {"system": "rats bearing colon tumors and xenografts bearing human colon carcinoma, HCT8 and HT-29", "experiment": "Antitumor activity in tumor-bearing rodents", "format": "in vivo", "conditions": "5-FU/irinotecan alone", "description": "as §5"}, "[4]": {"system": "bone marrow of rat sternum", "experiment": "Histopathological evaluation of sternum bone marrow", "format": "in vivo", "conditions": "Group 8, irinotecan 200 mg/kg i.v.; 5 dead animals", "description": "as §1, §2"}, "Fischer rats [5]": {"system": "Fischer rats", "experiment": "Survival / drug induced lethality", "format": "in vivo, rat", "conditions": "for rats died because of toxicity: days 6 and 7", "description": "as §3\n10 rats were assessed for survival up to 4 weeks after treatments. During the study, the kinetics of drug induced toxicities in animals (weight loss/gain, stomatitis, lethality were monitored daily during the first 2 weeks then twice a week thereafter up to 4 weeks in the survival phase. At the end of the survival phase the rats were sacrificed.\nas §4"}, "[6]": {"conditions": "enzymatic degradation by DPP IV in addition to renal clearance; cited from earlier work"}, "[7]": {"conditions": "irinotecan 200 mg/kg/day × 3, 5 dead rats, day 6 and day 7"}}, "data": [{"compound": "CCc1c2c(nc3ccc(OC(=O)N4CCC(N5CCCCC5)CC4)cc13)-c1cc3c(c(=O)n1C2)COC(=O)[C@]3(O)CC", "note": "[Irinotecan]", "values": [{"measurement": "extramedullary hematopoiesis in spleen", "setting": "spleen of Fischer rats", "value": "did not show any sign of extramedullary hematopoiesis"}, {"measurement": "Platelet/Group", "setting": "Fischer rats [1]; FIG. 1, Day 4", "value": "did not change"}, {"measurement": "RBC/Group", "setting": "Fischer rats [1]; FIG. 1, Day 4", "value": "did not change"}, {"measurement": "WBC/group", "setting": "Fischer rats [1]; FIG. 1, Day 4, after each dose of irinotecan", "value": "decreased"}, {"measurement": "WBC/group", "setting": "Fischer rats [1]; FIG. 1, Day 9, irinotecan alone treated group", "value": "did not reach the normal level"}, {"measurement": "Platelet/Group count", "setting": "Fischer rats [1]; FIG. 1, after 200 mg/kg irinotecan", "value": "decreased"}, {"measurement": "Eosinophils Mean Value", "setting": "Fischer rats [1]; [7]", "value": 0.42}, {"measurement": "Lymphocytes Mean Value", "setting": "Fischer rats [1]; [7]", "value": 1.55}, {"measurement": "Monocytes Mean Value", "setting": "Fischer rats [1]; [7]", "value": 0.05}, {"measurement": "WBC Mean Value", "setting": "Fischer rats [1]; [7]", "value": "2.18 10^3/µL"}, {"measurement": "MCV Mean Value", "setting": "Fischer rats [1]; irinotecan 200 mg/kg/day × 3, 5 dead rats, day 6 and day 7, in fL (unit assumed)", "value": 47.96}, {"measurement": "MCHC Mean Value", "setting": "Fischer rats [1]; irinotecan 200 mg/kg/day × 3, 5 dead rats, day 6 and day 7, in g/dL (unit assumed)", "value": 36.52}, {"measurement": "MTD", "setting": "[2]", "value": 100, "unit": "mg/kg"}, {"measurement": "overall tumor growth inhibition", "setting": "[3]", "value": 30, "unit": "%"}, {"measurement": "decrease (myelosuppression) in hematopoiesis of sternum bone marrow", "setting": "[4]", "value": "95-98%"}, {"measurement": "rats died", "setting": "Fischer rats [5]; Group 5, irinotecan 150 mg/kg i.v., day 8, 5 rats per group", "value": "One"}, {"measurement": "animals died with severe diarrhea", "setting": "Fischer rats [5]; Group 8, irinotecan 200 mg/kg i.v., day 7", "value": "One"}, {"measurement": "rats in moribund condition with acute diarrhea", "setting": "Fischer rats [5]; Group 8, irinotecan 200 mg/kg i.v., sacrificed before day 9", "value": 4}, {"measurement": "rats died because of toxicity", "setting": "Fischer rats [5]; irinotecan 150 mg/kg/d×3", "value": 10, "unit": "%"}, {"measurement": "rats died because of toxicity", "setting": "Fischer rats [5]; irinotecan 200 mg/kg/d×3", "value": "Fifty"}, {"measurement": "animals which survived treatment", "setting": "Fischer rats [5]; irinotecan 200 mg/kg/d×3 alone or in combination with elsiglutide", "value": 50, "unit": "%"}]}, {"compound": "Glucagon-like-peptide-2 [GLP-2(1-33)]", "values": [{"measurement": "half-life", "setting": "[6]", "value": "about 7 minutes"}]}, {"compound": "O=c1[nH]cc(F)c(=O)[nH]1", "note": "[5-FU, 5-fluorouracil]", "values": [{"measurement": "MTD", "setting": "[2]", "value": 100, "unit": "mg/kg"}, {"measurement": "overall tumor growth inhibition", "setting": "[3]", "value": 30, "unit": "%"}]}]}
